Experimental data taken from the supplement of paper PMC10307832.

Experiments:
Assay in all cases: relative viability (nuclei count vs DMSO), 5 days (fraction); higher = more cells survive
[1] = compound: CC(O)(CS(=O)(=O)c1ccc(F)cc1)C(=O)Nc1ccc(C#N)c(C(F)(F)F)c1 [Bicalutamide] + Cc1cc(Nc2cc(N3CCN(C)CC3)nc(Sc3ccc(NC(=O)C4CC4)cc3)n2)n[nH]1 [Tozasertib] (partner 0.1 µM)
Summary of the method: (§1)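 Medians of duplicate plates are given as relative viability. That measure is the nuclei count in treated wells divided by the count in vehicle wells. Counts were taken on 4× images of lung cancer cell lines in 1536-well plates, 5 days after pin-tool dosing the day after seeding with one drug alone or a fixed anchor-drug dose plus five library-drug doses (not always all listed) in √10 steps.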

[2] = compound: C(C(=O)C(=O)O)Br [Bromopyruvate] + CC1(C)CCC(c2ccc(Cl)cc2)=C(CN2CCN(c3ccc(C(=O)NS(=O)(=O)c4ccc(N[C@H](CCN5CCOCC5)CSc5ccccc5)c(S(=O)(=O)C(F)(F)F)c4)cc3)CC2)C1 [Navitoclax] (partner 0.5 µM)
Summary of the method: as §1

Bicalutamide = compound: CC(O)(CS(=O)(=O)c1ccc(F)cc1)C(=O)Nc1ccc(C#N)c(C(F)(F)F)c1 [Bicalutamide]
Summary of the method: (§2)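 Vehicle-anchored 1536-well plates of lung cancer cell lines, held overnight at 37 °C, were pinned with five library-drug doses (not always all listed) spaced by √10. No medium change followed over the next 5 days, after which the cells were fixed, permeabilised and Hoechst-stained together and imaged at 4×. Nuclei were counted with MetaXpress, and viability is treated-well nuclei over vehicle-well nuclei, taken as a median across plates. Plates passed with control CV below 25% and at least one doubling.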

Bromopyruvate = compound: C(C(=O)C(=O)O)Br [Bromopyruvate]
Summary of the method: as §2

Cell Line: UMC-11
- relative viability ([1]; first compound 0.08 µM): 0.193
- relative viability ([1]; first compound 0.253 µM): 0.184
- relative viability ([1]; first compound 0.8 µM): 0.191
- relative viability ([1]; first compound 2.53 µM): 0.191
- relative viability ([2]; first compound 1 µM): 0.289
- relative viability ([2]; first compound 3.162 µM): 0.291
- relative viability ([2]; first compound 10 µM): 0.304
- relative viability ([2]; first compound 31.62 µM): 0.297
- relative viability ([2]; first compound 100 µM): 0.288
- relative viability (Bicalutamide; 0.08 µM): 0.958
- relative viability (Bicalutamide; 0.253 µM): 0.909
- relative viability (Bicalutamide; 0.8 µM): 1.17
- relative viability (Bicalutamide; 2.53 µM): 0.938
- relative viability (Bromopyruvate; 1 µM): 1.03
- relative viability (Bromopyruvate; 3.162 µM): 0.989
- relative viability (Bromopyruvate; 10 µM): 0.908
- relative viability (Bromopyruvate; 31.62 µM): 0.958
- relative viability (Bromopyruvate; 100 µM): 1
